The record followed here is the supplement of paper PMC10307832.

What all share (assay): relative viability (nuclei count vs DMSO), 5 days (fraction); higher = more cells survive
Compound in assay [1]: CCn1c(-c2nonc2N)nc2c(C#CC(C)(C)O)ncc(OC[C@H]3CCCNC3)c21 + Nc1ncn([C@H]2C[C@H](O)[C@@H](CO)O2)c(=O)n1 [Decitabine] (partner 2 µM)
The essentials:
(§1)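 Relative viability equals treated-well nuclei counts divided by vehicle-well nuclei counts. Counts came from 4× images of lung cancer cell lines grown in 1536-well plates for 5 days after pin-tool dosing on the day after seeding. Dosing used one drug alone or a fixed anchor-drug dose plus five library-drug doses (not always all listed) in √10 steps, and values are medians of duplicate plates.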

Compound in assay [2]: CCn1c(-c2nonc2N)nc2c(C#CC(C)(C)O)ncc(OC[C@H]3CCCNC3)c21 + Cc1cc(Nc2cc(N3CCN(C)CC3)nc(Sc3ccc(NC(=O)C4CC4)cc3)n2)n[nH]1 [Tozasertib] (partner 0.1 µM)
In short, it runs like this:
as §1

Compound in assay [3]: CCOC1=CC=CC=C1N=NC2=C(NN(C2=O)C3=NC(=CS3)C4=CC=CC=C4)C [BAM7] + C[C@]1(O)C[C@@H](c2nc(-c3ccc4ccc(-c5ccccc5)nc4c3)c3c(N)nccn32)C1 [Linsitinib] (partner 1 µM)
In short, it runs like this: as §1

Compound in assay [4]: CCOC1=CC=CC=C1N=NC2=C(NN(C2=O)C3=NC(=CS3)C4=CC=CC=C4)C [BAM7] + CS(=O)(=O)CCNCc1ccc(-c2ccc3ncnc(Nc4ccc(OCc5cccc(F)c5)c(Cl)c4)c3c2)o1 [Lapatinib] (partner 2 µM)
The essentials:
as §1

In the case of UMC-11, the relative viability is 0.533 in assay [1] (first compound 0.01 µM); 0.46 in assay [1] (first compound 0.03162 µM); 0.6 in assay [1] (first compound 0.1 µM); 0.686 in assay [1] (first compound 0.3162 µM); 0.607 in assay [1] (first compound 1 µM); 0.198 in assay [2] (first compound 0.01 µM). The relative viability in assay [2] (first compound 0.03162 µM) stood at 0.209; in assay [2] (first compound 0.1 µM), 0.194; in assay [2] (first compound 0.3162 µM), 0.201; in assay [2] (first compound 1 µM) it was 0.197; in assay [3] (first compound 0.5 µM), 1.12; in assay [3] (first compound 5 µM), 1.05. The relative viability worked out at 1.07 in assay [3] (first compound 15.81 µM); 1.09 in assay [3] (first compound 50 µM); 1.02 in assay [4] (first compound 0.5 µM); 0.981 in assay [4] (first compound 5 µM); 1.12 in assay [4] (first compound 15.81 µM); 1.15 in assay [4] (first compound 50 µM).
